The values below come from PMC11277489, “Novel Piperazine Derivatives of Vindoline as Anticancer Agents” (International Journal of Molecular Sciences, 2024).

The subject of one series is HeLa cell line. Also on record: method as in PMID 32102414. The note with it: cited from earlier work.
The nature of series [1]: CellTiter-Glo Luminescent Cell Viability Assay on non-tumor CHO cells. It counts as cell-based, Chinese hamster. The following applies: Chinese hamster, CHO cells, 48 h, 10^−5 M, mean ± SD, n = 9. The protocol:
(§1) Three promising conjugates (20, 23, 25) were selected for testing on the non-tumor CHO cell line in the CellTiter-Glo Luminescent Cell Viability Assay (Promega Corporation, Madison, WI, USA) to reveal their selectivity for cancer cells.
(§2) Compounds 20, 23, and 25 were dissolved in DMSO in 10 mM stock solutions and stored frozen until use. CHO cells were cultured in complete Dulbecco’s Modified Eagle’s Medium (DMEM, low glucose (1 g/L)) supplemented with 10% fetal bovine serum, 1% Gibco GlutaMAX-I (100×) solution, 1% Gibco MEM non-essential amino acid solution (100×), and 0.1% penicillin–streptomycin mixture. Cells were grown in T-25 size cell culture flasks under standard cell culture conditions (37 °C, 5% CO2) and passaged at 70–80% confluency. The assay was performed according to the manufacturer’s protocol, as described previously. Briefly, CHO cells were seeded to opaque 96-well culture plates at a density of 5000 cells/100 µL complete DMEM/well. The side rows and columns of the plate were filled with sterile phosphate-buffer saline to avoid an edge effect. Following overnight incubation (37 °C, 5% CO2), the culture medium was aspirated from the cells and replaced with increasing concentrations of drug solutions (10^−5, 10^−6, and 10^−7 M) diluted from the stock solution in sterile complete DMEM (100 µL/well). Untreated cells served as a control, and complete DMEM served as a luminescent background control. Drug-treated cells were incubated for 48 h (37 °C, 5% CO2), and then equilibrated to room temperature in 30 min. At the end of the incubation period, 100 µL of room temperature CellTiter-Glo reagent was added to each well, and the plates were placed on an orbital shaker for 2 min and incubated for additional 10 min at room temperature without shaking. The luminescent signal was measured using an EnSpire AlphaLisa microplate reader (Perkin Elmer, Inc., Waltham, MA, USA). The normalized luminescent values of the treated cells were compared to those of the untreated control. The statistical analysis and calculation of IC50 values were performed in GraphPad Prism 8.0.1 (GraphPad, La Jolla, CA, USA). Estimated IC50 values were calculated by using non-linear regression by fitting a sigmoidal dose–response curve to the data points.
(In general: In ATP-based viability assays light output follows the ATP content of the culture.)

For series [2], the system named is non-tumor Chinese hamster ovary (CHO) cells. Described as above. The note with it: for effect on CHO cell viability (in words) / IC50: 48 h; for effect on CHO cell viability (in words): 10^−7 and 10^−6 M; for IC50: read-out: IC50 (estimated). It counts as cell-based. The procedure:
as §1, §2

Where [3] appears, read: CHO cells (non-tumor Chinese hamster ovary cell line).
The mark [4] stands for this setting: Cricetulus griseus, CHO cells, roughly estimated from three concentrations.

Like-named read-outs stand apart in the source and are kept apart here.

For the molecule `CCC12C=CCN3CCC4(c5ccc(OC)cc5N(C)C4C(O)(C(=O)OC)C1OC(=O)CCCN1CCN(C)CC1)C32` (centres unmarked) [Compound 3], in the series with HeLa cell line, the IC50 (commonly the concentration that gives 50% inhibition) is 9.36 µM.
As to `CCC12C=CCN3CCC4(c5cc(NC(=O)CN6CCN(C(c7ccc(F)cc7)c7ccc(F)cc7)CC6)c(OC)cc5N(C)C4C(O)(C(=O)OC)C1OC(C)=O)C32` (centres unmarked) [Compound 20], the viability (as a rule, the share of living cells, or the viability signal relative to a control) at 48 h in series [1] (setting [3]) stood at 1.25 ± 0.77%. The “effect on CHO cell viability (in words)” value in series [2] (CHO cells) is listed as “did not affect CHO cell viability”. In addition, the IC50 in series [2] (setting [4]) is roughly 2.54 µM.
The molecule `CC[C@]12C=CCN3CC[C@@]4(c5ccc(OC)cc5N(C)[C@H]4[C@@](O)(C(=O)OC)[C@@H]1OC(=O)CCCN1CCN(Cc4ccc(C(F)(F)F)cc4)CC1)[C@@H]32` [Compound 23] displayed a viability at 48 h in series [1] (setting [3]) of 52.8 ± 7.25%. The “effect on CHO cell viability (in words)” value in series [2] (CHO cells) was “did not affect CHO cell viability”. Further, the EC50 in series [2] (Cricetulus griseus, CHO, non-tumor cells, read-out: half-maximal effective concentration (EC50)) was 10.8 µM. The IC50 in series [2] (setting [4]) is roughly 10.8 µM.
For the molecule `CC[C@]12C=CCN3CC[C@@]4(c5ccc(OC)cc5N(C)[C@H]4[C@@](O)(C(=O)OC)[C@@H]1OC(=O)CCCN1CCN(C(c4ccc(F)cc4)c4ccc(F)cc4)CC1)[C@@H]32` [Compound 25], the viability at 48 h in series [1] was 33.5 ± 19.6%. In series [2] (CHO cells), the “effect on CHO cell viability (in words)” value is “did not affect CHO cell viability”. In addition, the IC50 in series [2] (Cricetulus griseus, CHO) was roughly 6.64 µM.
